# Laboratory results: patent US20140005163A1 (NOVARTIS AG, priority 2010, published 2014)
# Like-named read-outs stand apart in the source and are kept apart here.
# Legend:
# Solubility at pH 6.8 = format: physicochemical
# In short: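 Following the procedure of Zhou et al. (2007), compound solubility was determined at pH 6.8.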
# [1] = tested on: PKB Ser473 phosphorylation in Rat1-myr-HA-p110 beta cells; experiment: Reverse protein array assay, PKB Ser473 phosphorylation in Rat1-myr-p110 beta cells; format: cell-based; details: 0.5 h, pAkt Ser473, 30 minutes incubation, read-out: p-PKB IC50
# In short: (§1)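 After at least 20 h of culture, the p110 isoform-transfected Rat1 lines receive compound in an 8-step dilution series, keeping DMSO at 0.2%, for 30 minutes. Cells are then lysed and lysates arrayed on chips for fluorescence detection of Ser473-phosphorylated PKB.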
# [2] = tested on: PKB Ser473 phosphorylation in Rat1-myr-HA-p110 delta cells; experiment: Reverse protein array assay, PKB Ser473 phosphorylation in Rat1-myr-p110 delta cells; format: cell-based; details: read-out: p-PKB IC50
# In short: as §1
# PI3K alpha = molecular target: T1, PI3K alpha (Homo sapiens, UniProt P42336); experiment: PI3K alpha kinase assay (Kinase-Glo luminescence); format: biochemical
# T1 construct: p85(iSH2) fusion partner (see partner chain) (N); His tag (C); made in house; host or cells: baculovirus; Tn5 (Trichoplusia ni) or TiniPro insect cells
# T1 sequence (P42336 with tags, fused parts or gaps limits assumed): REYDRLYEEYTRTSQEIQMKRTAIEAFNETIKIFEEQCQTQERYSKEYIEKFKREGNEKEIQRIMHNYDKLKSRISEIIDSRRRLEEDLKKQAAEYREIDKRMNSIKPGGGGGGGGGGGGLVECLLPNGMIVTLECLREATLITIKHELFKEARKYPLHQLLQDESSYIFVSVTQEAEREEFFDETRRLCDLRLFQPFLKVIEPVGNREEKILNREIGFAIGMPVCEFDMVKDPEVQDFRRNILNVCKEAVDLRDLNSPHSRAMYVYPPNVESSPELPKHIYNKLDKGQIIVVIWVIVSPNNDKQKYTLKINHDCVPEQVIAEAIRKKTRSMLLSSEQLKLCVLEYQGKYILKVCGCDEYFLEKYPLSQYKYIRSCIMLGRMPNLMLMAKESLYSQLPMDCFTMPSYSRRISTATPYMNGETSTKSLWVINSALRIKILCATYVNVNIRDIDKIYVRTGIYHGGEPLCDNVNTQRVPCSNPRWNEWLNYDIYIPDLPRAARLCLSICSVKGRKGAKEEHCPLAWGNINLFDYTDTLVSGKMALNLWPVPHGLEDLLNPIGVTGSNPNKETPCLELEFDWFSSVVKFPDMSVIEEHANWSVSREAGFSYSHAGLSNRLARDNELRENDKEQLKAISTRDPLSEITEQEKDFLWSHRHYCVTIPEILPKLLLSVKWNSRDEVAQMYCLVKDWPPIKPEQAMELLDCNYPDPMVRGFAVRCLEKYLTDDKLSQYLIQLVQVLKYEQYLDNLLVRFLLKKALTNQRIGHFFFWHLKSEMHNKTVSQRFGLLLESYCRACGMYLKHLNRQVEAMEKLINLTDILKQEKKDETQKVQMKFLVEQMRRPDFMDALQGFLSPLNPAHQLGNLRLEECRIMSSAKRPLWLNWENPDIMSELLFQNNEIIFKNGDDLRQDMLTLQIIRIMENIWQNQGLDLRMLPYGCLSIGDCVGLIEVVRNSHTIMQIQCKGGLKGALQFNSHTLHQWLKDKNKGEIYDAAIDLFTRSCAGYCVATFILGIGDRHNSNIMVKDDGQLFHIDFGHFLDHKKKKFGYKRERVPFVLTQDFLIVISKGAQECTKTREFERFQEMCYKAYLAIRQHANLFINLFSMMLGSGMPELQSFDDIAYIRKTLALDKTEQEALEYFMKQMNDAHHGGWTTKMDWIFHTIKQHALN
# In short: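 Enzyme 10 nM PI3Kα EMV B1075; ATP 1 μM; PI 10 μg/mL; Tris-HCl pH 7.5 10 mM, MgCl2 3 mM, NaCl 50 mM, CHAPS 0.05%, DTT 1 mM; 60 min RT; Kinase-Glo luminescence; 4-parameter IC50 fit, 8 concentrations, single points.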
# [3] = pH 6.8, aqueous buffer, thermodynamic from solid, read-out: solubility
SMILES,solubility (Solubility at pH 6.8; [3]),IC50 [1],IC50 [2],IC50 (PI3K alpha),solubility (Solubility at pH 6.8; pH 6.8)
"Cc1nn(C)cc1-n1c(=O)n(C)c2cnc3ccc(-c4ccc(C(N)=O)cc4)cc3c21 [Example 41, 4-[1-(1,3-Dimethyl-1H-pyrazol-4-yl)-3-methyl-2-oxo-2,3-dihydro-1H-imidazo[4,5-c]quinolin-8-yl]-benzamide]",14 µg/mL,37 nM,92 nM,< 9 nM,–
"Cc1nn(C)cc1-n1c(=O)n(C)c2cnc3ccc(-c4cccc(C(N)=O)c4)cc3c21 [Example 46, 3-[1-(1,3-Dimethyl-1H-pyrazol-4-yl)-3-methyl-2-oxo-2,3-dihydro-1H-imidazo[4,5-c]quinolin-8-yl]-benzamide]",8 µg/mL,541 nM,489 nM,50 nM,–
"Cc1nn(C)cc1-n1c(=O)n(C)c2cnc3ccc(-c4ccc5c(c4)CC(=O)N5)cc3c21 [Example 49, 1-(1,3-Dimethyl-1H-pyrazol-4-yl)-3-methyl-8-(2-oxo-2,3-dihydro-1H-indol-5-yl)-1,3-dihydro-imidazo[4,5-c]quinolin-2-one]",33 µg/mL,152 nM,442 nM,47 nM,–
"Cc1nn(C)cc1-n1c(=O)n(C)c2cnc3ccc(-c4cccc(S(=O)(=O)N(C)C)c4)cc3c21 [Example 53.1, 3-[1-(1,3-Dimethyl-1H-pyrazol-4-yl)-3-methyl-2-oxo-2,3-dihydro-1H-imidazo[4,5-c]quinolin-8-yl]-N,N-dimethyl-benzenesulfonamide]",3 µg/mL,43 nM,128 nM,16 nM,–
"COCc1cncc(-c2ccc3ncc4c(c3c2)n(-c2cn(C)nc2C)c(=O)n4C)c1 [Example 54.1, 1-(1,3-Dimethyl-1H-pyrazol-4-yl)-8-(5-methoxymethyl-pyridin-3-yl)-3-methyl-1,3-dihydro-imidazo[4,5-c]quinolin-2-one]",164 µg/mL,92 nM,112 nM,17 nM,–
"CCOc1cncc(-c2ccc3ncc4c(c3c2)n(-c2cn(C)nc2Cl)c(=O)n4C)c1 [Example 56.4, 1-(3-Chloro-1-methyl-1H-pyrazol-4-yl)-8-(5-ethoxy-pyridin-3-yl)-3-methyl-1,3-dihydro-imidazo[4,5-c]quinolin-2-one]",14 µg/mL,11 nM,11 nM,5 nM,–
"Cc1nn(C)cc1-n1c(=O)n(C)c2cnc3ccc(-c4cncc(OC(C)C)c4)cc3c21 [Example 58.1, 1-(1,3-Dimethyl-1H-pyrazol-4-yl)-8-(5-isopropoxy-pyridin-3-yl)-3-methyl-1,3-dihydro-imidazo[4,5-c]quinolin-2-one]",> 428 µg/mL,30 nM,43 nM,6 nM,–
"CCN(C)C(=O)Cn1cc(-n2c(=O)n(C)c3cnc4ccc(-c5cncc(OC(C)C)c5)cc4c32)c(C)n1 [Example 58.5, N-Ethyl-2-{4-[8-(5-isopropoxy-pyridin-3-yl)-3-methyl-2-oxo-2,3-dihydro-imidazo[4,5-c]quinolin-1-yl]-3-methyl-pyrazol-1-yl}-N-methyl-acetamide]",466 µg/mL,102 nM,357 nM,7 nM,–
"COc1ncc(-c2ccc3ncc4c(c3c2)n(-c2cn(C)nc2C)c(=O)n4C)cc1NC(C)=O [Example 64, N-{5-[1-(1,3-Dimethyl-1H-pyrazol-4-yl)-3-methyl-2-oxo-2,3-dihydro-1H-imidazo[4,5-c]quinolin-8-yl]-2-methoxy-pyridin-3-yl}-acetamide]",3 µg/mL,24 nM,157 nM,87 nM,–
"COc1ncc(-c2ccc3ncc4c(c3c2)n(-c2cn(C)nc2C)c(=O)n4C)cc1[N+](=O)[O-] [Example 66, 1-(1,3-dimethyl-1H-pyrazol-4-yl)-8-(6-methoxy-5-nitro-pyridin-3-yl)-3-methyl-1,3-dihydro-imidazo[4,5-c]quinolin-2-one]",–,86 nM,176 nM,36 nM,2 µg/mL
"Cc1nn(C)cc1-n1c(=O)n(C)c2cnc3ccc(-c4cnc5c(c4)nnn5C)cc3c21 [Example 72, 1-(1,3-Dimethyl-1H-pyrazol-4-yl)-3-methyl-8-(3-methyl-3H-[1,2,3]triazolo[4,5-b]pyridin-6-yl)-1,3-dihydro-imidazo[4,5-c]quinolin-2-one]",37 µg/mL,299 nM,225 nM,29 nM,–
"Cc1nn(C)cc1-n1c(=O)n(C)c2cnc3ccc(-c4cnc5c(c4)ncn5C)cc3c21 [Example 74, 1-(1,3-Dimethyl-1H-pyrazol-4-yl)-3-methyl-8-(3-methyl-3H-imidazo[4,5-b]pyridin-6-yl)-1,3-dihydro-imidazo[4,5-c]quinolin-2-one]",8 µg/mL,56 nM,280 nM,20 nM,–
"Cc1nn(C)cc1-n1c(=O)n(C)c2cnc3ccc(-c4ccc(-n5cccn5)nc4)cc3c21 [Example 79, 1-(1,3-Dimethyl-1H-pyrazol-4-yl)-3-methyl-8-(6-pyrazol-1-yl-pyridin-3-yl)-1,3-dihydro-imidazo[4,5-c]quinolin-2-one]",–,7 nM,16 nM,48 nM,2 µg/mL
"Cc1ncc(-c2ccc3ncc4c(c3c2)n(-c2cn(C)nc2C)c(=O)n4C)cc1OC(C)C [Example 84.1, 1-(1,3-Dimethyl-1H-pyrazol-4-yl)-8-(5-isopropoxy-6-methyl-pyridin-3-yl)-3-methyl-1,3-dihydro-imidazo[4,5-c]quinolin-2-one]",219 µg/mL,8 nM,18 nM,6 nM,–
"CCNc1cc(-c2ccc3ncc4c(c3c2)n(-c2c(C)nn(CC(=O)N(C)C)c2C)c(=O)n4C)cnc1C [Example 87.5, 2-{4-[8-(5-Ethylamino-6-methyl-pyridin-3-yl)-3-methyl-2-oxo-2,3-dihydro-imidazo[4,5-c]quinolin-1-yl]-3,5-dimethyl-pyrazol-1-yl}-N,N-dimethyl-acetamide]",> 513 µg/mL,407 nM,634 nM,43 nM,–
"CCNc1cc(-c2ccc3ncc4c(c3c2)n(-c2c(C)nn(CCOC)c2C)c(=O)n4C)cnc1OC [Example 90.2, 8-(5-Ethylamino-6-methoxy-pyridin-3-yl)-1-[1-(2-methoxy-ethyl)-3,5-dimethyl-1H-pyrazol-4-yl]-3-methyl-1,3-dihydro-imidazo[4,5-c]quinolin-2-one]",> 502 µg/mL,10 nM,46 nM,44 nM,–
"Cc1nn(C)cc1-n1c(=O)n(C)c2cnc3ccc(-c4cnc5cc[nH]c5c4)cc3c21 [Example 99, 1-(1,3-Dimethyl-1H-pyrazol-4-yl)-3-methyl-8-(1H-pyrrolo[3,2-b]pyridin-6-yl)-1,3-dihydro-imidazo[4,5-c]quinolin-2-one]",–,16 nM,19 nM,16 nM,2 µg/mL
"Cc1nn(C)cc1-n1c(=O)n(C)c2cnc3ccc(-c4ccc(OCCO)nc4)cc3c21 [Example 107, 1-(1,3-Dimethyl-1H-pyrazol-4-yl)-8-[6-(2-hydroxy-ethoxy)-pyridin-3-yl]-3-methyl-1,3-dihydro-imidazo[4,5-c]quinolin-2-one]",49 µg/mL,101 nM,193 nM,17 nM,–
